Laboratory results: ChEMBL document CHEMBL5316338, “Discovery of Novel PTP1B Inhibitors with Once-Weekly Therapeutic Potential for Type 2 Diabetes: Design, Synthesis, and In Vitro and In Vivo Investigations of BimBH3 Peptide Analogues” (J Med Chem, 2023)
Calls of active or inactive are those of the source. No cut-off for these calls is given here. Square brackets hold non-standard residues; d marks the D form. Peptide text beside a SMILES is read from it. * marks the point of attachment. ξ: configuration not given here. C20 diacid = O=C(O)CCCCCCCCCCCCCCCCCCC(=O)*; C19 diacid = O=C(O)CCCCCCCCCCCCCCCCCC(=O)*; C17 diacid = O=C(O)CCCCCCCCCCCCCCCC(=O)*; ξR = N=C(N)NCCCC(N)C(=O)O

What was measured:
[1] = molecular target: T1, Tyrosine-protein phosphatase non-receptor type 1 (Homo sapiens) (UniProt P18031); assay: Inhibition of N-terminal His tagged recombinant human PTP1B expressed in Escherichia coli using pNPP as substrate assessed as substrate hydrolysis at 40 umol/L relative to control; settings: dose 40.0 µmol/L
T1 sequence (whole entry): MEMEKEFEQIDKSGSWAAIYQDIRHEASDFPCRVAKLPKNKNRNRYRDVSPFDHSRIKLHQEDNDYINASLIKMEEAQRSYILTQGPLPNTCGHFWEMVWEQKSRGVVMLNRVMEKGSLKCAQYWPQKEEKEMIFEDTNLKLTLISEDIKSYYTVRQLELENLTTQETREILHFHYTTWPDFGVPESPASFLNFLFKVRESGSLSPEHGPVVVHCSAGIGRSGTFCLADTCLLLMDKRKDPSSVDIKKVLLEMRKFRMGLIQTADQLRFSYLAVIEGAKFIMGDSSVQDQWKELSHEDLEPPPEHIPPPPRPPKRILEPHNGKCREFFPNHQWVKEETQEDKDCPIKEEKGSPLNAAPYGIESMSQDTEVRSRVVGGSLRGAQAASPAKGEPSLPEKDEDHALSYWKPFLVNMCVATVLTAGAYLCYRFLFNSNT

[2] = molecular target: T2, Tyrosine-protein phosphatase non-receptor type 1 (Homo sapiens, UniProt P18031); assay: Inhibition of N-terminal His tagged recombinant human PTP1B expressed in Escherichia coli using pNPP as substrate assessed as substrate hydrolysis
T2 sequence (P18031 whole entry): T1 sequence (whole entry)

[3] = molecular target: T3, Tyrosine-protein phosphatase non-receptor type 2 (Homo sapiens, UniProt P17706); assay: Inhibition of recombinant human TC-PTP (1 to 314 residues) expressed in baculovirus infected insect cells using pNPP as substrate assessed as substrate hydrolysis; design: species or system Insect cell
T3 sequence (P17706 whole entry): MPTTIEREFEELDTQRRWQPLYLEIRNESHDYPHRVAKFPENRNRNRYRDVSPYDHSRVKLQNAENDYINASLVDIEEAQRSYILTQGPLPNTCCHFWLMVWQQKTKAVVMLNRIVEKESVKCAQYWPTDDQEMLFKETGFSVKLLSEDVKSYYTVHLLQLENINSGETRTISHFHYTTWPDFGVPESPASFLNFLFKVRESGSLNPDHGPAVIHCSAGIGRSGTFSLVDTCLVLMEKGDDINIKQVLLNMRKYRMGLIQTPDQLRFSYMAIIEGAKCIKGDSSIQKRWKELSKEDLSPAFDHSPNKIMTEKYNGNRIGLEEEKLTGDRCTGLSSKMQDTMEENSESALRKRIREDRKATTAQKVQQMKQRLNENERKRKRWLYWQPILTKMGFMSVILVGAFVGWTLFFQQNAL

[4] = molecular target: T4, Tyrosine-protein phosphatase non-receptor type 2 (Homo sapiens) (UniProt P17706); assay: Inhibition of recombinant human TC-PTP (1 to 314 residues) expressed in baculovirus infected insect cells using pNPP as substrate assessed as substrate hydrolysis at 50 umol/L relative to control; settings: Insect cell, dose 50.0 µmol/L
T4 sequence (whole entry): T3 sequence (P17706 whole entry)

Homo sapiens = species on record: Homo sapiens; assay: Selectivity index, ratio of IC50 for inhibition of recombinant human TC-PTP (1 to 314 residues) expressed in baculovirus infected insect cells to IC50 for inhibition of N-terminal His-tagged recombinant human PTP1B expressed in Escherichia coli
Proteinase K = assay: Stability of compound assessed as Proteinase K (unknown origin) mediated compound degradation by measuring half-life by HPLC analysis; assay type: ADME
Pepsin = assay: Stability of compound assessed as Pepsin (unknown origin) mediated compound degradation by measuring half-life by HPLC analysis; assay type: ADME; settings: human
chymotrypsin [5] = molecular target: chymotrypsin (Homo sapiens, UniProt P17538+P40313+Q6GPI1+Q99895); assay: Stability of compound assessed as chymotrypsin (unknown origin) mediated compound degradation by measuring half-life by RP-HPLC analysis; assay type: ADME, protein assay
carboxypeptidase A = molecular target: T5, carboxypeptidase A (Homo sapiens, UniProt P15085); assay: Stability of compound assessed as carboxypeptidase A (unknown origin) mediated compound degradation by measuring half-life by RP-HPLC analysis; assay type: ADME
T5 sequence (P15085 whole entry): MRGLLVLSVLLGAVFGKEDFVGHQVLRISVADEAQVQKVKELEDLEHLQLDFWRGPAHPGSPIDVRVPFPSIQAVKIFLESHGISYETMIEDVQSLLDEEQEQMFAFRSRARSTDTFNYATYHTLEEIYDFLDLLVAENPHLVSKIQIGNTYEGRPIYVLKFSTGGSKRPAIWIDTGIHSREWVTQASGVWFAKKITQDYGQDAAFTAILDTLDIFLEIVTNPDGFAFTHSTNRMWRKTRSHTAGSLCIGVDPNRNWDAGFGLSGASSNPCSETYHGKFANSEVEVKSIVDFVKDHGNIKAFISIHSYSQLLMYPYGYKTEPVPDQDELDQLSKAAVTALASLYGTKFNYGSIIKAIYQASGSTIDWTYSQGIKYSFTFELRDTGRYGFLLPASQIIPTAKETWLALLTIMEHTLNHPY

[6] = Stability of compound assessed as Proteinase K (unknown origin) mediated compound degradation by measuring fold change of half-life by HPLC analysis relative to BimBH312-mer peptide; assay type: ADME
[7] = Stability of compound assessed as Pepsin (unknown origin) mediated compound degradation by measuring fold change of half-life by HPLC analysis relative to BimBH312-mer peptide; assay type: ADME; settings: human
Chymotrypsin [8] = molecular target: Chymotrypsin (Homo sapiens, UniProt Q99895+P17538+P40313+Q6GPI1); assay: Stability of compound assessed as chymotrypsin (unknown origin) mediated compound degradation by measuring fold change of half-life by RP-HPLC analysis relative to BimBH312-mer peptide; assay type: ADME, protein assay
Carboxypeptidase A1 = molecular target: T6, Carboxypeptidase A1 (Homo sapiens, UniProt P15085); assay: Stability of compound assessed as carboxypeptidase A (unknown origin) mediated compound degradation by measuring fold change of half-life by RP-HPLC analysis relative to BimBH312-mer peptide; assay type: ADME
T6 sequence (P15085 whole entry): T5 sequence (P15085 whole entry)

Mus musculus [9] = assay: Antidiabetic activity against C57BL/Ks db/db mouse assessed as redcution in fasting blood glucose level at 1 umol/kg administered subcutaneously and measured immediately by glucometer analysis (reference value: 19.0 +/- 2.7 […]); assay type: functional; settings: dose 1 µmol/kg; route sc
Mus musculus [10] = assay: Antidiabetic activity against C57BL/Ks db/db mouse assessed as redcution in fasting blood glucose level at 1 umol/kg, sc administered once a week and measured on day 8 by glucometer analysis (reference value: 27.7 +/- 3.7 […]); assay type: functional; settings: dose 1 µmol/kg, time 8 day
Mus musculus [11] = assay: Antidiabetic activity against C57BL/Ks db/db mouse assessed as redcution in fasting blood glucose level at 1 umol/kg, sc administered once a week and measured on day 15 by glucometer analysis (reference value: 27.3 +/- 2.4 […]); assay type: functional; settings: dose 1 µmol/kg, time 15 day
Mus musculus [12] = assay: Antidiabetic activity against C57BL/Ks db/db mouse assessed as redcution in fasting blood glucose level at 1 umol/kg, sc administered once a week and measured on day 24 by glucometer analysis (reference value: 30.2 +/- 3.2 […]); assay type: functional; settings: dose 1 µmol/kg, time 24 day
Mus musculus [13] = assay: Antidiabetic activity against C57BL/Ks db/db mouse assessed as redcution in fasting blood glucose level at 1 umol/kg, sc administered once a week and measured on day 26 by glucometer analysis (reference value: 31.4 +/- 2.2 […]); assay type: functional; settings: dose 1 µmol/kg, time 26 day
Mus musculus [14] = assay: Antidiabetic activity against C57BL/Ks db/db mouse assessed as redcution in fasting blood glucose level at 1 umol/kg, sc administered once a week and measured on day 28 by glucometer analysis (reference value: 32.4 +/- 1.1 […]); assay type: functional; settings: dose 1 µmol/kg, time 28 day
Mus musculus [15] = assay: Antidiabetic activity against over-night fasted C57BL/ks db/db mouse assessed as suppression of increased blood glucose concentration at 1 uM/kg, sc pretreated with compound for 4 weeks followed by oral glucose stimulation and measured upto 120 mins by oral glucose tolerance test; assay type: functional, organism-based; settings: time 40440.0 min
Mus musculus [16] = assay: Antidiabetic activity against over-night fasted C57BL/ks db/db mouse assessed as suppression of increased blood glucose concentration at 1 uM/kg, sc pretreated with compound for 4 weeks followed by insulin stimulation and measured for 90 mins by insulin tolerance test; assay type: functional, organism-based; settings: time 40410.0 min
Mus musculus [17] = assay: Antidiabetic activity against sc dosed C57BL/Ks db/db mouse assessed as reduction in serum insulin level at 1 umol/kg by ELISA analysis; assay type: functional, organism-based; settings: dose 1.0 µmol/kg
Mus musculus [18] = assay: Antidiabetic activity against sc dosed C57BL/Ks db/db mouse assessed as reduction in C-peptide level at 1 umol/kg by ELISA analysis; assay type: functional, organism-based; settings: dose 1.0 µmol/kg
Mus musculus [19] = assay: Antidiabetic activity against sc dosed C57BL/Ks db/db mouse assessed as reduction in glucagon level at 1 umol/kg by ELISA analysis; assay type: functional, organism-based; settings: dose 1.0 µmol/kg

## CC[C@H](C)[C@H](NC(=O)CCCCCCCCCCCCCCCC(=O)O)C(=O)N[C@@H](C)C(=O)N[C@@H](CCC(N)=O)C(=O)N[C@@H](CCC(=O)O)C(=O)N[C@@H](CC(C)C)C(=O)N[C@@H](CCCNC(=N)N)C(=O)NC(CCCNC(=N)N)C(=O)N[C@H](C(=O)NCC(=O)N[C@@H](CC(=O)O)C(=O)N[C@@H](CCC(=O)O)C(=O)N[C@@H](Cc1ccccc1)C(=O)O)[C@@H](C)CC (stereo partly drawn) ({C17 diacid}-IAQELR[ξR]IGDEF-OH)
[1]
  inhibition: > 50%
[2]
  IC50: 1360 nM

## CC[C@H](C)[C@H](NC(=O)CCCCCCCCCCCCCCCCCC(=O)O)C(=O)N[C@@H](C)C(=O)N[C@@H](CCC(N)=O)C(=O)N[C@@H](CCC(=O)O)C(=O)N[C@@H](CC(C)C)C(=O)N[C@@H](CCCNC(=N)N)C(=O)NC(CCCNC(=N)N)C(=O)N[C@H](C(=O)NCC(=O)N[C@@H](CC(=O)O)C(=O)N[C@@H](CCC(=O)O)C(=O)N[C@@H](Cc1ccccc1)C(=O)O)[C@@H](C)CC (stereo partly drawn) ({C19 diacid}-IAQELR[ξR]IGDEF-OH)
[1]
  inhibition: > 50%
[2]
  IC50: 1270 nM

## CC[C@H](C)[C@H](NC(=O)CCCCCCCCCCCCCCCCCCC(=O)O)C(=O)N[C@@H](C)C(=O)N[C@@H](CCC(N)=O)C(=O)N[C@@H](CCC(=O)O)C(=O)N[C@@H](CC(C)C)C(=O)N[C@@H](CCCNC(=N)N)C(=O)NC(CCCNC(=N)N)C(=O)N[C@H](C(=O)NCC(=O)N[C@@H](CC(=O)O)C(=O)N[C@@H](CCC(=O)O)C(=O)N[C@@H](Cc1ccccc1)C(=O)O)[C@@H](C)CC (stereo partly drawn) ({C20 diacid}-IAQELR[ξR]IGDEF-OH)
[1]
  inhibition: > 50%
[2]
  IC50: 443 nM
[3]
  IC50: > 50 µM
[4]
  inhibition: < 50%
Homo sapiens
  Ratio IC50: > 113
Proteinase K
  half-life: 54 min
Pepsin
  half-life: 91.2 min
Chymotrypsin [5]
  half-life: 30 min
Carboxypeptidase A
  half-life: 15 min
[6]
  fold change (FC): 18
[7]
  fold change (FC): 69.1
Chymotrypsin [8]
  fold change (FC): 11.6
Carboxypeptidase A1
  fold change (FC): 7.8
Mus musculus [9]
  Fasting blood glucose level: 18.6 mmol/L
Mus musculus [10]
  Fasting blood glucose level: 11.3 mmol/L
Mus musculus [11]
  Fasting blood glucose: 9.7 mmol/L
Mus musculus [12]
  Fasting blood glucose level: 16 mmol/L
Mus musculus [13]
  Fasting blood glucose level: 19 mmol/L
Mus musculus [14]
  Fasting blood glucose level: 19.2 mmol/L
Mus musculus [15]
  Activity: Active
Mus musculus [16]
  Activity: Active
Mus musculus [17]
  Activity: Active
Mus musculus [18]
  Activity: Active
Mus musculus [19]
  Activity: Active
